# Measured values from patent publication US7576087B2, “Heterocyclyl-3-sulfonylazaindole or -azaindazole derivatives as 5-hydroxytryptamine-6 ligands” (Wyeth, priority 2003, dated 2009).
# Where a name gives a salt, the structure may show the parent alone.
# Target: human cloned 5-HT6 receptors (Homo sapiens, UniProt P50406)
# Sequence (P50406 whole entry): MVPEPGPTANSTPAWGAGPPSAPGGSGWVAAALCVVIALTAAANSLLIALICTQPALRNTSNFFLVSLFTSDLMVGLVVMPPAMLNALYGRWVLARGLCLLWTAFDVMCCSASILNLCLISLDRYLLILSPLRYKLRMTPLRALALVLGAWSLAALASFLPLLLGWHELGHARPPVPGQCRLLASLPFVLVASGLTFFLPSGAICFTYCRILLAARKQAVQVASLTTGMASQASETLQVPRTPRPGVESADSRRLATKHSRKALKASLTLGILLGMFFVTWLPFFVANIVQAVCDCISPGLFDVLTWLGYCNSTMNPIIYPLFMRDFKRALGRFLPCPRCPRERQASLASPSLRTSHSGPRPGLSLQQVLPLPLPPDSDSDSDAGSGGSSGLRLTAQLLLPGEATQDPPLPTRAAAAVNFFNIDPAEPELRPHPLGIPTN
row,Ki,SMILES
1,34 nM,"CN1CCN(c2ccc3[nH]nc(S(=O)(=O)c4ccccc4)c3n2)CC1 [Example 4, 5-(4-methylpiperazin-1-yl)-3-(phenylsulfonyl)-1H-pyrazolo-[4,3-b]pyridine hydrochloride]"
2,30 nM,"O=S(=O)(c1ccccc1)c1c[nH]c2ccc(N3CCN(Cc4ccccc4)CC3)nc12 [Example 8, 5-(4-Benzylpiperazin-1-yl)-3-(phenylsulfonyl)-1H-pyrrolo[3,2-b]pyridine]"
3,2 nM,"O=S(=O)(c1ccccc1)c1c[nH]c2ccc(N3CCNCC3)nc12 [Example 9, 3-(Phenylsulfonyl)-5-piperazin-1-yl-1H-pyrrolo[3,2-b]pyridine Dihydrochloride]"
